System: cold sores
Format: in vivo, human

Nc1nc2c(ncn2COCCO)c(=O)[nH]1 [acyclovir]
response of cold sores to treatment (Example 3, person, history, oral and topical): unresponsiveness | side effects (human, in vivo, po): dizziness

— patent publication US11191795B2, “Herbal compositions and methods for treating herpes” (priority 2019, dated 2021)
